Data from US7820839B2, “Taxoid-fatty acid conjugates and pharmaceutical compositions thereof” (The Research Foundation of State University of New York, priority 2003, dated 2010).
Read-outs that look alike come from different tables or passages of the source.

Legend:
[1] = test system: pgp+ human colon tumor xenograft, DLD-1; conditions: for Days to 600 mm^3 Median / Growth Delay / Toxicity: number of animals who either died or lost greater than 20% body weight: SCID mice; for Days to 600 mm^3 Median / Growth Delay / Toxicity: number of animals who either died or lost greater than 20% body weight / Tumor free mice/Group: DLD-1; for Tumor free mice/Group: tumors less than 600 mm^3 on day 201
Experimental: (§1) Female severe combined immune deficient, (SCID) mice aged six to eight weeks were obtained from either the in-house breeding facility at Roswell Park Cancer Institute or Taconic (Germantown, N.Y.). All aspects of animal care complied with the Institutional Animal Care and Use Committee guidelines. […] Tumors were initiated by implantation of approximately 50 mg of non-necrotic tumor fragments on the right flank using a 12-guage trocar needle. Chemotherapy was started when the tumor was established as a palpable mass, (approximately 50-100 mm^3 size). Therapy consisted of i.v. injections through the tail vein, given four times, three days apart. Each drug treatment group or drug free vehicle consisted of 4-5 mice per group, untreated controls contained 10 mice per group.
(§2) These were used for comparison purposes. DHA-taxoids and other omega-3 fatty acid-taxoids were prepared as a 30 mg/mL stock solution in equal parts of Tween 80 (polyoxyethylene-sorbitan monooleate; purchased from Sigma Chemical Company) and absolute ethanol. To stablize the formulation of the DHA-taxoids and other omega-3 fatty acid-taxoids, antioxidants, L-ascorbic acid (3.9 mM) and α-tocopherol (2.0 mM), were added. Each stock solution was further diluted before use in 0.9% NaCl (saline) so that the appropriate concentration of each drug could be injected i.v. via the tail vein, in a volume of approximately 0.4 mL for a 20 g mouse. Each drug was administered once a day on […].
(§3) For each animal, the tumor length (1) and width (w), each in mm, were measured using electronic calipers and recorded every 3-4 days. Tumor volume (v), in mm^3, was calculated using the formula: v=0.4(l×w^2). The time in days to the pre-determined target tumor volume of 600 mm^3 was linearly interpolated from a plot of log(volume) versus time. Statistically significant differences in tumor volumes between control and drug-treated mice were determined by the Cox-Mantel test. […] All statistical tests were two-sided.

[2] = test system: human ovarian tumor xenograft (pgp−) A121; assay: In vivo tumor growth assay, A121 xenograft in SCID mice; conditions: for antitumor effect (in words): human ovarian tumor xenograft (pgp−) A121, SCID mice; for Tumor free mice/Group: no palpable tumor on day 197; for Tumor free mice/Group / Days to 600 mm^3 Median / Growth Delay / Toxicity: number of animals who either died or lost greater than 20% body weight: A121; for Days to 600 mm^3 Median / Growth Delay / Toxicity: number of animals who either died or lost greater than 20% body weight: SCID mice
Experimental: as §1, §2, §3

[3] = test system: human colon carcinoma SW-620 xenografts; conditions: SW-620 xenografts in mice; cited from earlier work
[4] = cited from earlier work
[5] = test system: Madison 109 subcutaneous lung tumor; conditions: cited from earlier work
[6] = test system: human breast cancer cell line MCF7-MDR; conditions: drug-resistant, MDR phenotype; cited from earlier work
[7] = total dose 240 mg/kg (80 mg/kg/inj) i.v. day 5, 8 and 11
[8] = total dose 240 mg/kg (80 mg/kg/inj) i.v.
[9] = total dose 150 mg/kg (50 mg/kg/inj) i.v. day 5, 8 and 11
[10] = total dose 150 mg/kg (50 mg/kg/inj) i.v.
[11] = total dose 75 mg/kg (25 mg/kg/inj) i.v. day 5, 8 and 11
[12] = total dose 75 mg/kg (25 mg/kg/inj) i.v.
[13] = total dose 90 mg/kg (30 mg/kg/inj) i.v.
[14] = total dose 60 mg/kg (20 mg/kg/inj) i.v.

CC/C=C\C/C=C\C/C=C\C/C=C\C/C=C\C/C=C\CCC(=O)O[C@@H](C(=O)O[C@H]1C[C@@]2(O)[C@@H](OC(=O)c3ccccc3)[C@@H]3[C@]4(OC(C)=O)CO[C@@H]4C[C@H](O)[C@@]3(C)C(=O)[C@H](OC(=O)C3CC3)C(=C1C)C2(C)C)[C@H](C=C(C)C)NC(=O)OC(C)(C)C [DHA-SB-T-1214, 2′-Docosahexaenoyl-3′-dephenyl-3′-(2-methyl-1-propenyl)-10-cyclopropanecarbonyldocetaxel]
survival of mice ([1]; day 201, DLD-1, SCID mice): all mice were alive on day 201 | tumor detected in treated mice ([1]; day 201, DLD-1, SCID mice): no trace of tumor was detected | antitumor effect (in words) ([1]; drug-resistant human colon tumor xenografts in SCID mice): remarkable antitumor effect | Days to 600 mm^3 Median [1, 7]: >201 days | Growth Delay [1, 8]: >187 days | Toxicity: number of animals who either died or lost greater than 20% body weight [1, 8]: 0 | Tumor free mice/Group [1, 8]: 5/5

CC/C=C\C/C=C\C/C=C\C/C=C\C/C=C\C/C=C\CCC(=O)O[C@@H](C(=O)O[C@@H]1C(C)=C2[C@@H](OC(C)=O)C(=O)[C@@]3(C)[C@H]([C@H](OC(=O)c4ccccc4)[C@@]4(OC(=O)O[C@@H]14)C2(C)C)[C@]1(OC(C)=O)CO[C@@H]1C[C@@H]3O)[C@H](CC(C)C)NC(=O)OC(C)(C)C [DHA-IDN-5109, 2′-Docosahexaenoyl-3′-dephenyl-3′-(2-methylpropyl)-10-acetyldocetaxel-1,14-carbonate]
Days to 600 mm^3 Median [1, 9]: 14 days | Growth Delay [1, 10]: 0 days | Toxicity: number of animals who either died or lost greater than 20% body weight [1, 10]: 0 | Tumor free mice/Group [1, 10]: 0/5

CC/C=C\C/C=C\C/C=C\C/C=C\C/C=C\C/C=C/CCC(=O)O[C@@H](C(=O)O[C@H]1C[C@@]2(O)[C@@H](OC(=O)c3ccccc3)C3[C@](C)(C(=O)[C@H](OC(=O)CC)C(=C1C)C2(C)C)[C@@H](O)C[C@H]1OC[C@@]31OC(C)=O)[C@H](CC(C)C)NC(=O)OC(C)(C)C (stereo partly shown) [DHA-SB-T-1103, 2′-Docosahexaenoyl-3′-dephenyl-3′-(2-methylpropyl)-10-propanoyldocetaxel]
Days to 600 mm^3 Median [1, 11]: 18 days | Growth Delay [1, 12]: 4 days | Tumor free mice/Group [1, 12]: 0/5

CC/C=C\C/C=C\C/C=C\C/C=C\C/C=C\C/C=C/CCC(=O)O[C@@H](C(=O)O[C@H]1C[C@@]2(O)[C@@H](OC(=O)c3ccccc3)C3[C@]4(OC(C)=O)COC4C[C@H](O)[C@@]3(C)C(=O)[C@H](O)C(=C1C)C2(C)C)[C@@H](NC(=O)OC(C)(C)C)c1ccccc1 (stereo partly shown) [DHA-Docetaxel, reference compound]
Days to 600 mm^3 Median [1, 11]: 31 days | Growth Delay [1, 12]: 17 days | Toxicity: number of animals who either died or lost greater than 20% body weight [1, 12]: 0 | Days to 600 mm^3 Median [1, 9]: 48 days | Growth Delay [1, 10]: 34 days | Toxicity: number of animals who either died or lost greater than 20% body weight [1, 10]: 0 | Tumor free mice/Group [1, 12]: 0/4 | Tumor free mice/Group [1, 10]: 0/4

CC/C=C\C/C=C\C/C=C\C/C=C\C/C=C\C/C=C/CCC(=O)O[C@@H](C(=O)O[C@H]1C[C@@]2(O)[C@@H](OC(=O)c3ccccc3)C3[C@](C)(C(=O)[C@H](OC(=O)N(C)C)C(=C1C)C2(C)C)[C@@H](O)C[C@H]1OC[C@@]31OC(C)=O)[C@H](C=C(C)C)NC(=O)OC(C)(C)C (stereo partly shown) [DHA-SB-T-1216]
antitumor effect (in words) [2]: effective tumor growth delay | Tumor free mice/Group [2, 13]: 1/5 | Days to 600 mm^3 Median [2, 13]: >197 days | Growth Delay [2, 13]: >186 days | Toxicity: number of animals who either died or lost greater than 20% body weight [2, 13]: 4

CC(=O)O[C@H]1C(=O)[C@@]2(C)[C@H]([C@H](OC(=O)c3ccccc3)[C@]34OC(=O)O[C@H]3[C@H](OC(=O)[C@H](O)[C@H](CC(C)C)NC(=O)OC(C)(C)C)C(C)=C1C4(C)C)[C@]1(OC(C)=O)CO[C@@H]1C[C@@H]2O [IDN-5109, ortataxel, reference compound]
activity against xenografts (in words) [3]: impressive activity | Days to 600 mm^3 Median [1, 9]: 46 days | Growth Delay [1, 10]: 32 days | Toxicity: number of animals who either died or lost greater than 20% body weight [1, 10]: 0 | Tumor free mice/Group [1, 10]: 0/3

CC/C=C\C/C=C\C/C=C\C/C=C\C/C=C\C/C=C/CCC(=O)O[C@@H](C(=O)O[C@H]1C[C@@]2(O)[C@@H](OC(=O)c3ccccc3)C3[C@](C)(C(=O)[C@H](OC(=O)C4CC4)C(=C1C)C2(C)C)[C@@H](O)C[C@H]1OC[C@@]31OC(C)=O)[C@H](CC(C)C)NC(=O)OC(C)(C)C (stereo partly shown) [DHA-SB-T-1104, 2′-Docosahexaenoyl-3′-dephenyl-3′-(2-methyl-1-propyl)-10-cyclopropanecarbonyldocetaxel]
antitumor effect (in words) [2]: effective tumor growth delay | Tumor free mice/Group [2, 8]: 0/5 | Days to 600 mm^3 Median [2, 8]: 126 days | Growth Delay [2, 8]: 115 days | Toxicity: number of animals who either died or lost greater than 20% body weight [2, 8]: 0 | Days to 600 mm^3 Median [1, 7]: 18 days | Growth Delay [1, 8]: 4 days | Toxicity: number of animals who either died or lost greater than 20% body weight [1, 8]: 0 | Tumor free mice/Group [1, 8]: 0/5

CC/C=C\C/C=C\C/C=C\C/C=C\C/C=C\C/C=C/CCC(=O)O[C@@H](C(=O)O[C@H]1C[C@@]2(O)[C@@H](OC(=O)c3ccccc3)C3[C@](C)(C(=O)[C@H](OC(=O)CC)C(=C1C)C2(C)C)[C@@H](O)C[C@H]1OC[C@@]31OC(C)=O)[C@H](C=C(C)C)NC(=O)OC(C)(C)C (stereo partly shown) [DHA-SB-T-1213, 2′-Docosahexaenoyl-3′-dephenyl-3′-(2-methyl-1-propenyl)-10-propanoyldocetaxel]
antitumor effect (in words) [2]: excellent results | Tumor free mice/Group [2, 13]: 4/5 | Days to 600 mm^3 Median [2, 13]: >197 days | Growth Delay [2, 13]: >186 days | Days to 600 mm^3 Median [1, 11]: 68 days | Growth Delay [1, 12]: 54 days | Tumor free mice/Group [1, 12]: 0/5

CC/C=C\C/C=C\C/C=C\C/C=C\C/C=C\C/C=C/CCC(=O)O[C@@H](C(=O)O[C@H]1C[C@@]2(O)[C@@H](OC(=O)c3ccccc3)C3[C@](C)(C(=O)[C@H](OC(C)=O)C(=C1C)C2(C)C)[C@@H](O)C[C@H]1OC[C@@]31OC(C)=O)[C@@H](NC(=O)c1ccccc1)c1ccccc1 (stereo partly shown) [DHA-Paclitaxel, reference compound]
Tumor free mice/Group [2, 8]: 2/5 | Days to 600 mm^3 Median [2, 8]: 197 days | Growth Delay [2, 8]: 186 days | Toxicity: number of animals who either died or lost greater than 20% body weight [2, 8]: 0 | Days to 600 mm^3 Median [1, 7]: 18 days | Growth Delay [1, 8]: 4 days | Toxicity: number of animals who either died or lost greater than 20% body weight [1, 8]: 0 | Tumor free mice/Group [1, 8]: 0/5 | lower clearance rate than paclitaxel ([4]; mice): 94 fold | stability in plasma ([4]; plasma): stable in plasma | duration of sustained regression ([5]; optimum dose of 120 mg/kg, all mice): sixty | regression of lung tumor xenografts ([5]; optimum dose of 120 mg/kg, mice): complete regression

CC(=O)O[C@H]1C(=O)[C@@]2(C)[C@H]([C@H](OC(=O)c3ccccc3)[C@]3(O)C[C@H](OC(=O)[C@H](O)[C@@H](NC(=O)c4ccccc4)c4ccccc4)C(C)=C1C3(C)C)[C@]1(OC(C)=O)CO[C@@H]1C[C@@H]2O [Paclitaxel, reference compound]
Tumor free mice/Group [2, 14]: 0/5 | Days to 600 mm^3 Median [2, 14]: 94 days | Growth Delay [2, 14]: 83 days | Toxicity: number of animals who either died or lost greater than 20% body weight [2, 14]: 0 | Days to 600 mm^3 Median ([1]; total dose 60 mg/kg (20 mg/kg/inj) i.v. day 5, 8 and 11): 22 days | Growth Delay [1, 14]: 8 days | Toxicity: number of animals who either died or lost greater than 20% body weight [1, 14]: 0 | Tumor free mice/Group [1, 14]: 0/3 | regression of the tumors ([5]; optimum dose of 20 mg/kg, mice): neither complete nor partial regression | IC50 [6]: 300 to 800 nM
